One compound from article PMC4923153, “Protection of Primary Dopaminergic Midbrain Neurons by GPR139 Agonists Supports Different Mechanisms of MPP^+ and Rotenone Toxicity” (Frontiers in Cellular Neuroscience, 2016) can be followed below.

Structures are written as SMILES.

The test system of assay [1] is primary DA midbrain neurons. As to the kind of experiment: Protection of primary DA midbrain neurons against MPP+ toxicity (TH-positive neuron count). In kind it is cell-based, mice. To be noted: 1 μM MPP+ 24 h. The protocol: Experiments were conducted in accordance with the ethical guidelines of H. Lundbeck A/S and the Danish legislation of animal use for scientific procedures. Cell culture was basically performed as described (Nagel et al., [2008]), with few modifications. Briefly, the mesencephalon floor was dissected from embryonic day (E) 13 mice, tissue pieces collected in HBBS, transferred to 0.1% trypsin, 0.05% DNAse (Sigma-Aldrich DN25–1G) and incubated at 37°C in a humidified atmosphere with 5% CO2 for 20 min; washed in DNAse, homogenized and centrifuged at 200× g, resuspended in medium (DMEM (Gibco 41965–039), 10% FCS, 1% P/S (Gibco, 15140–122), l.5% HEPES (Gibco, 15630–056), 1% Sodium Pyruvate (Gibco, 11360–039)) and plated on poly-L-lysine coated 96-well dishes. The medium was switched to neurobasal medium after 90 min (neurobasal (Gibco 21103–049) with 1% P/S, 2% B27 (Gibco, 17504–044), 1.25% 0.5 mM L-glutamine (Gibco, 25030–024)). After 6 days in vitro (DIV), cultures were treated with 1 μM of three different GPR139 agonists and in some experiments, concomitantly, with 10 μM of the antagonist for1 h, before exposing them to 0–1 μM MPP^+, 0–50 μM 6-OHDA or 0–100 nM rotenone for 24 h. For the MPP^+ treated cultures, it was also tested whether the effect of the GPR139 agonists could be blocked by concomitantly applying 10 μM GPR139 antagonist (IC50 3 μM). Subsequently, cells were fixed in 4% PFA/PBS for 10 min, washed with PBS, incubated in 0.5% BSA/0.1% Triton-X/5% porcine serum for 20 min, and incubated for 24 h in rabbit anti-tyrosine hydroxylase antibodies (1:1000 in PBS, Millipore AB152); washed 2 × 5 min in PBS. Secondary antibodies (Alexa 488 rabbit) were applied 1:200 in PBS with 0.2 μg/ml Hoechst dye for 1 h and washed 2 × 5 min in PBS. One drop of DAKO fluorescent mounting medium were applied into each well. Plates were stored at 4°C until tyrosine-hydroxylase-positive (TH-positive) neurons were counted using a Thermo Scientific Cellomics® ArrayScan® VTI HCS Reader. Results were normalized against control condition and compared. Experiments were only included in the evaluation if at least 30% cell death was induced at the highest toxin concentration compared to non-treated control wells. To ensure that only healthy primary cultures were assessed, we furthermore excluded experiments with total cell counts below Mean minus standard deviation (SD) of the summarized experiments. […]
To examine whether GPR139 agonists protect against toxin-induced DA cell death, we first treated cultured DA midbrain neurons with the GPR139 agonists and MPP^+ . Subsequently, we determined survival of TH-positive neurons.
Figure 8 Three different GPR139 surrogate agonists protect primary dopaminergic (DA) midbrain neurons against 1-methyl-4-phenyl-pyridinium ionMPP^+ toxicity. […] TH-positive neurons were counted and normalized to numbers under control conditions. […] Each data point is calculated from 12 (0 μM and 1 μM MPP^+ concentrations); 4 (0.125 μM); 7 (0.25 μM); or 8 (0.5 μM) independent measurements.
Primary midbrain cultures were pretreated with the indicated amount of GPR139 agonist compound 3 and with either vehicle ( [drawing 5] ), or 1 μM MPP^+ ( [drawing 6] ); or MPP^+ with 10 μM of the antagonist compound 4 ( [drawing 7] ), or with the antagonist compound 4 alone ( [drawing 8] ). The number of TH-positive neurons was determined 24 h later and normalized to control conditions. […]

Assay [2] has as its system primary DA midbrain neurons. As to the kind of experiment: Protection of primary DA midbrain neurons against rotenone toxicity (TH-positive neuron count). Format: cell-based, mice. Particulars: 1 μM agonist 1 h, 0-100 nM rotenone 24 h, n = 4. On the procedure: Experiments were conducted in accordance with the ethical guidelines of H. Lundbeck A/S and the Danish legislation of animal use for scientific procedures. Cell culture was basically performed as described (Nagel et al., [2008]), with few modifications. […] Plates were stored at 4°C until tyrosine-hydroxylase-positive (TH-positive) neurons were counted using a Thermo Scientific Cellomics® ArrayScan® VTI HCS Reader. […] To ensure that only healthy primary cultures were assessed, we furthermore excluded experiments with total cell counts below Mean minus standard deviation (SD) of the summarized experiments. […]
Mesencephalic cultures were treated with 1 μM of either one of the GPR139 agonists compound 1 ( [drawing 13] ), compound 2 ( [drawing 14] ), or compound 3 ( [drawing 15] ), or vehicle ( [drawing 16] ) for 1 h before exposing them to 0–100 nM of rotenone. […] TH-positive neurons were counted and normalized to control numbers (100%).

For assay [3], the target named is norepinephrine transporter (Homo sapiens, UniProt P23975). In words: Inhibition of binding to the norepinephrine transporter (cross reactivity). Particulars: concentration not given. The protocol: None of the compounds were useful in vivo tools due to their unfavorable ADME properties including low whole brain exposure and brain/plasma ratio (Shi et al., [2011]). Cross reactivity with the DAT or the norepinephrine transporter was determined as described (Shi et al., [2011]).
norepinephrine transporter, sequence (P23975 whole entry, species assumed): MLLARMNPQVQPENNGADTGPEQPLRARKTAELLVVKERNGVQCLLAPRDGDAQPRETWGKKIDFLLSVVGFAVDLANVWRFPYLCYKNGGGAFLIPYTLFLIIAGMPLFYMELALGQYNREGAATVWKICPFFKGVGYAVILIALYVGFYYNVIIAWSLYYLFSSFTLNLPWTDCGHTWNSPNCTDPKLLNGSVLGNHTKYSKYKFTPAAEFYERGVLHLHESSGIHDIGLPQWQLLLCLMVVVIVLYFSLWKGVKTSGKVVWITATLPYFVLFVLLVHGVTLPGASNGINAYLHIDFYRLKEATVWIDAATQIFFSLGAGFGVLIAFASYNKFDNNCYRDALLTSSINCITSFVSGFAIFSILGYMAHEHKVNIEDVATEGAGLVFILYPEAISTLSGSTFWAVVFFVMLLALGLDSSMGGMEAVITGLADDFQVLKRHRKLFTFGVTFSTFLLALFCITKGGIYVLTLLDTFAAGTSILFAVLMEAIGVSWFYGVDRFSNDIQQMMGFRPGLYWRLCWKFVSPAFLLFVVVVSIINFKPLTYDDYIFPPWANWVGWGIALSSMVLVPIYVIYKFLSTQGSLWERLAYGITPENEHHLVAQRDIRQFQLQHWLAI
As both 6-OHDA and MPP^+ are taken up via the DAT, it was not likely that the agonists mediated their protection against MPP^+ by merely blocking the DAT. However, to further exclude the possibility that the protection against MPP^+ by the agonist compound 3 is mediated by blocking MPP^+ uptake, rather than signaling through GPR139, DA and noradrenaline uptake in the presence of the agonist was tested. […] Ten micrometres (10 μM) compound 1 inhibited binding to the DAT or the norepinephrine transporter by 4% or −8%, respectively (Shi et al., [2011]) compound 2 inhibited binding to the DAT or the norepinephrine transporter 2% or −4%, respectively.

Consider `CN(C)C1CCN(C(=O)CNC(=O)Cc2cccc3ccccc23)C1` (stereo not shown) [compound 2, N-[2-(3-Dimethylamino-pyrrolidin-1-yl)-2-oxo-ethyl]-2-Naphthalen-1-yl-acetamide], for which, in assay [1] (1 μM agonist 1 h, p ≤ 0.05 vs vehicle), the “protection against MPP+ toxicity” value was “significant”. The “cells killed by 1 μM MPP+ that were rescued” value in assay [1] (1 μM compound pre-incubation 1 h, TH-positive neurons) came to 40.5%. Further, in assay [2], the “protection against rotenone toxicity” value was “do not protect”. In addition, the “inhibition of binding to the norepinephrine transporter” value in assay [3] is recorded as −4%.
